Measurements as given in patent US5712269A, “M2 receptor ligand for the treatment of neurological disorders” (Pharmaceutical Discovery Corporation, priority 1995, dated 1998).
“Also recorded” adds a separate entry of the source.

Tests used:
[1] = partition coefficient between 1-octanol and 0.1M phosphate; type: physicochemical; conditions: 1-octanol / 0.1M phosphate
[2] = test system: mice; assay: behavioral observation after intraperitoneal injection; type: in vivo, mouse
[3] = test system: mice; assay: Watermaze behavioral studies; type: in vivo, mouse (male C57 BL/6); conditions: 10 mg/kg intraperitoneally
Text: The following procedures are standard techniques routinely used by those skilled in the art (Morris, R. G. M., 1981)
Male C57 BL/6 mice, 30 g body weight. Minimum 50 animals. Obtainable from The Jackson Laboratories, Bar Harbor, Rt. 3, Me. 04609.
Circular water tank made of sturdy (10 mm thick, minimum) black (or very dark, opaque) lucite or other plastic. Diameter of the tank: 1 meter; Wall height: 50 cm. The tank must have a valve connected to a large diameter (min 1.5 cm inner) water filling/draining rubber hose (min. length 10 ft).
Two targets, one made of the same plastic as the water tank (the "black target"), and one made of translucent variety. Base made of heavy lucite (1 inch thick) shaped as a square with 10 inch sides. Height between the upper surface of the base and the lower surface of the target platform: 20 cm. Target platform support: 20 cm tall, circular rod (1 inch diam.). Circular target platform, 8 cm across, made of 0.5 cm thick plastic and covered with a non-skid material (surgical tape can be used) painted either black or white (depending on the target).
Regimen "A" consists of concurrent injections of either drug(s) or saline and swimming. Injections administered in a sequence: injection--24h--swim--2h--injection--24h--swim--2h--injection . . . etc., until a stable "time to target" plateau among the controls will be reached. […]

[4] = target: T1, M2 receptors (Rattus norvegicus, UniProt P10980); assay: inhibition of [^3 H]AF-DX-384 binding to M2 receptors in the rat brain
T1 construct: from tissue; host or cells: rat brain
T1 sequence (P10980 1-466): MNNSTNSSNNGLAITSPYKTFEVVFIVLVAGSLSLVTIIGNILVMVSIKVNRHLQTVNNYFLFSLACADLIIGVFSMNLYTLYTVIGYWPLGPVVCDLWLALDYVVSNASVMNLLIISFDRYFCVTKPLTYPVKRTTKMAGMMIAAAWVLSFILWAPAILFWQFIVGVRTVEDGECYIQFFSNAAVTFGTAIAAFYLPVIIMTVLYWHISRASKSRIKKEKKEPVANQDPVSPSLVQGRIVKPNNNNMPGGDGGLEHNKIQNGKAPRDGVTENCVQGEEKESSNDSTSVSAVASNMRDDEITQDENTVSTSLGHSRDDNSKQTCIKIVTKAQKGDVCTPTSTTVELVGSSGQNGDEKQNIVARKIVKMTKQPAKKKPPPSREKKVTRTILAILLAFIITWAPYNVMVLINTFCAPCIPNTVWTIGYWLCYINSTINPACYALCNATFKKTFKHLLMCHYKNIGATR
Text: FIG. 5 is a graph of the inhibition of [^3 H]AF-DX-384 binding to M2 receptors in the rat brain by PDC008.004, determined as % specific [^3 H]AFDX 384 binding versus log [PDC008.004] in nM.

[5] = test system: muscarinic cholinergic receptor; conditions: background statement; cited from earlier work

SMILES | partition coefficient (log P) [1] | motor activity after a single injection ([2]; 10 mg/kg, intraperitoneally, 24 hour period prior to behavioral testing) | signs observed in injected animals ([2]; 100 mg/kg intraperitoneally) | penetration into the intracerebral space ([2]; inferred from very swift central cholinergic mediated events, intraperitoneal) | movement pattern change in watermaze ([3]; 10 treated vs 10 control mice) | time required to find a hidden target (target latency) after the fourth trial ([3]; daily injections, mice) | Ki [4] [nM] | effect on memory function [5]
CCN(CC)CCN(CC(=O)N1c2ccccc2C(=O)Nc2cccnc21)CC1CCCCC1.Cl [Compound 6, 11-[[[2-(Diethylamino)ethyl]cyclohexylmethylamino]-acetyl]-5,11-dihydro-6H-pyrido [2,3-b][1,4]-benzodiazepin-6-one hydrochloride salt] | 0.16 |  |  |  |  |  |  | 
CCN(CC)CCN(CC(=O)N1c2ccccc2C(=O)Nc2cccnc21)CC1CCCCC1 [PDC 008.004, 11-[[[2-(diethylamino)ethyl]cyclohexylmethylamino]-acetyl]-5,11-dihydro-6H-pyrido [2,3-b][1,4]-benzodiazepin-6-one] | 0.78±0.18 | increased motor activity | presence of dyskinesia, ataxia, and absence of flaccid paralysis | rapid penetration into the intracerebral space | substantial and significant (P>0.01) movement pattern change; also recorded: rapid shift from thygmotactic (wall-hugging) to center crossing and center crossing-goal oriented behavior | substantial statistically significant (P<0.05) decrease | 422 | 
CN1[C@@H]2C[C@@H](OC(=O)[C@H](CO)c3ccccc3)C[C@H]1[C@@H]1O[C@@H]12 [scopolamine] |  |  |  |  |  |  |  | impair memory function
